The target in the first assay is human E3 ligase component cereblon (CRBN) (Homo sapiens (Human), UniProt Q96SW2). Put plainly: Cereblon (CRBN) target engagement, NanoBRET TE Intracellular E3 Ligase Assay in transfected HEK-293T cells. The conditions noted are these: read-out: CRBN Binding EC50. As for the experimental part: HEK293T cells were harvested ca. 75% confluent with trypsin and plated (500,000 cells/well) in a 6-well tissue culture plate in 2 mL of Dulbecco's Modified Eagle Medium (DMEM)+10% Fetal Bovine Serum (FBS) and incubated overnight at 37° C.
Sequence of human E3 ligase component cereblon (CRBN) (Q96SW2 whole entry, the tested form may be a part): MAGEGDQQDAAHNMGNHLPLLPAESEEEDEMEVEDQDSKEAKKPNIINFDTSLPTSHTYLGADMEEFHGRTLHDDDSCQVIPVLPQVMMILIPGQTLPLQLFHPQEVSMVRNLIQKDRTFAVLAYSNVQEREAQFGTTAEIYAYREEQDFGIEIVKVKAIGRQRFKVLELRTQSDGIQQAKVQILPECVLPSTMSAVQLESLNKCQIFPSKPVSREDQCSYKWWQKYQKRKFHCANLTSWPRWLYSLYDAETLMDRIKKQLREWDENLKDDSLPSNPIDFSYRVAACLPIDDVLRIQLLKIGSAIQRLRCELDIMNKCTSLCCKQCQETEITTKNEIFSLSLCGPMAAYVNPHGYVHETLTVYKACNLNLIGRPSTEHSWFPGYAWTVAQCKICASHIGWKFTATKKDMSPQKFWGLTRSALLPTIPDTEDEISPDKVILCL
Sequence of human E3 ligase component cereblon (CRBN) (Q16531 whole entry partner, the tested form may be a part): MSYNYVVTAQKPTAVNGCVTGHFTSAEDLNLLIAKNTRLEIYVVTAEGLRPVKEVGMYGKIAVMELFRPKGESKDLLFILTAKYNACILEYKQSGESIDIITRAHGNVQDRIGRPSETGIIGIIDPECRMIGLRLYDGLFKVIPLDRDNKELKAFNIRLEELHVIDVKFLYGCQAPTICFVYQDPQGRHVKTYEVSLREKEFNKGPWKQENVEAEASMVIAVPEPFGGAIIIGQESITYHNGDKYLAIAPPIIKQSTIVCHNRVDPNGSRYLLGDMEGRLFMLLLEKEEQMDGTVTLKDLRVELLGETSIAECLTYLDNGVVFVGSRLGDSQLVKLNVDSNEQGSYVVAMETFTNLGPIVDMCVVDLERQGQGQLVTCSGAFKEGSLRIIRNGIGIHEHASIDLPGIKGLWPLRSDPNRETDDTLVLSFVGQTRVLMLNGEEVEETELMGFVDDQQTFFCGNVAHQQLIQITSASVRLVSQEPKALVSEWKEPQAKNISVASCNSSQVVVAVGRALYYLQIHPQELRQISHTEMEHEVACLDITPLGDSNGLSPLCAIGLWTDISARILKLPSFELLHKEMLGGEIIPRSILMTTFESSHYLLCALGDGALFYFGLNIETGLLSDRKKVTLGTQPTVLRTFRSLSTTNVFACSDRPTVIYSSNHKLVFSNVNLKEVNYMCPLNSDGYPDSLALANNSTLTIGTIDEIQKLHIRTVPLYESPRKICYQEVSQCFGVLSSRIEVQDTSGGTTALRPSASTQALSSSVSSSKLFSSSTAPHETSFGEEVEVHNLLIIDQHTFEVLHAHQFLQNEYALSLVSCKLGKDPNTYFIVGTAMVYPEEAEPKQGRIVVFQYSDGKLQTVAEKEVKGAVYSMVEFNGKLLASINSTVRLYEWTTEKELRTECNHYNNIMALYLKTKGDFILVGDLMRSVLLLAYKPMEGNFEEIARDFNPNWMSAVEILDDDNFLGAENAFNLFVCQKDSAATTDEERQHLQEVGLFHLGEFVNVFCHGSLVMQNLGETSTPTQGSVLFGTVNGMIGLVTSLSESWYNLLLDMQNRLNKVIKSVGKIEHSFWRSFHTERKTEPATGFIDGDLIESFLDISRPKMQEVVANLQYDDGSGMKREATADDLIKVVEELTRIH
The NanoLuc-CRBN fusion vector (Nluc-CRBN; Promega) contains the coding region of human E3 ligase component cereblon (CRBN) fused to the C-terminus of the NanoLuc luciferase coding region. A mixture of 10 ng Nluc-CRBN and 990 ng DDB1 Expression Vector (Promega) was added to 125 μL Opti-Minimum Essential Medium (Opti-MEM™; Thermo Fisher) along with 2 μL P3000 reagent (Thermo Fisher) in a 1.5 mL epppendorf tube. This solution was added to Lipofectamine 3000 transfection reagent (5 μL; Thermo Fisher) in Opti-MEM (125 μL), mixed well, and incubated for 15 minutes at room temperature. The transfection mixture was added dropwise to cells and incubated overnight at 37° ° C., 5% CO2. Following transfection, cells were washed once with PBS, and trypsin (250 μL) was added and incubated 30-45 sec to dislodge cells. Complete media (2 mL) was added to resuspend cells to form a single cell suspension. Cells were centrifuged at 320×g for 5 min at room temperature, the supernatant was removed, and the cell pellet resuspended in Opti-MEM (3 mL; wash step repeated×2). After final resuspension in 5 mL Opti-MEM, cells were counted and resuspended at 200,000 cells/mL in Opti-MEM.
Cereblon target engagement was monitored by Bioluminescence Resonance Energy Transfer (BRET) in transfected HEK-293T cells using the NanoBRET TE Intracellular E3 Ligase Assay (Promega). Briefly, 384-well plates (white opaque plates, Corning 3574, low binding surface) were seeded with transfected HEK-293T cells (38 μL/well). 2 μL of 10 μM CRBN tracer (diluted 1:5 in Tracer Dilution Buffer) was added to each well. Plates were centrifuged at 320×g for 1 min at room temperature. Test compounds were added in a 11-point dilution series (typically 10 μM to […]) using a TECAN D300e Digital Dispenser. Plates were shaken for 2 minutes on a microplate shaker to mix compounds. Plates were centrifuged at 320×g for 1 min at room temperature, and subsequently incubated for 2 hours at 37° C.
After incubation, plates were allowed to cool to room temperature for 15 minutes. 20 μL of 3× Complete NanoBRET™ Nano-Glo® Substrate plus Inhibitor Solution (Promega, 1:166 Substrate and 1:500 dilution of Extracellular NanoLuc® Inhibitor diluted in Opti-MEM) were added to each well. Plates were incubated with shaking at room temperature for 3 minutes covered with foil. Plates were read on a CLARIOstar microplate reader (BMG LabTech), measuring at 450 nm (donor emission) and 610 nm (acceptor emission). The IC50 values were determined by regression to best fit four-parameter logistic curves using GraphPad Prism.
`O=C1NC(=O)C2(N3Cc4cc(O[C@H]5CCCC[C@@H]5N5CC(c6ccc(F)cc6Cl)C5)ccc4C3=O)CC1C2` [Compound 85, 1-(5-(((1S,2S)-2-(3-(2-chloro-4-fluorophenyl)azetidin-1-yl)cyclohexyl)oxy)-1-oxoisoindolin-2-yl)-3-azabicyclo[3.1.1]heptane-2,4-dione]: the EC50 was over 10 µM.
As to `N#Cc1ccc(C2CN([C@H]3CCCC[C@H]3Oc3ccc4c(c3)CN(C35CC(C3)C(=O)NC5=O)C4=O)C2)c(F)c1` (racemic) [Compound 90, Rac-4-(1-((cis)-2-((2-(2,4-dioxo-3-azabicyclo[3.1.1]heptan-1-yl)-1-oxoisoindolin-5-yl)oxy)cyclohexyl)azetidin-3-yl)-3-fluorobenzonitrile], the EC50 is over 10 µM.
On the same count and under the same terms, the same measure for `O=C1NC(=O)C2(N3Cc4cc(O[C@H]5CCC[C@@H]5N5CC(c6ccccc6Cl)C5)ccc4C3=O)CC1C2` [Compound 82, 1-(5-(((1S,2S)-2-(3-(2-chlorophenyl)azetidin-1-yl)cyclopentyl)oxy)-1-oxoisoindolin-2-yl)-3-azabicyclo[3.1.1]heptane-2,4-dione]: 0.921 µM; for `N#Cc1cc(F)ccc1C1CN([C@H]2CCCC[C@H]2Oc2ccc3c(c2)CN(C2CCC(=O)NC2=O)C3=O)C1` (mixture of isomers) [Compound 102, Rac-2-(1-((cis)-2-((2-(2,6-dioxopiperidin-3-yl)-1-oxoisoindolin-5-yl)oxy)cyclohexyl)azetidin-3-yl)-5-fluorobenzonitrile]: 0.024 µM.
On to `N#Cc1cc(F)ccc1C1CN([C@@H]2CCC[C@@H]2Oc2ccc3c(c2)CN(C24CC(C2)C(=O)NC4=O)C3=O)C1` (racemic) [Compound 70, Rac-2-(1-((cis)-2-((2-(2,4-dioxo-3-azabicyclo[3.1.1]heptan-1-yl)-1-oxoisoindolin-5-yl)oxy)cyclopentyl)azetidin-3-yl)-5-fluorobenzonitrile], for which the EC50 is over 10 µM.
Same read-out and setting: the same measure for `N#Cc1ccccc1C1CN([C@H]2CCCC[C@@H]2Oc2ccc3c(c2)CN(C24CC(C2)C(=O)NC4=O)C3=O)C1` (racemic) [Compound 95, Rac-2-(1-((trans)-2-((2-(2,4-dioxo-3-azabicyclo[3.1.1]heptan-1-yl)-1-oxoisoindolin-5-yl)oxy)cyclohexyl)azetidin-3-yl)benzonitrile]: over 10 µM; for `O=C1NC(=O)C2(N3Cc4cc(O[C@H]5CCCC[C@@H]5N5CCC(c6ccccc6)C5)ccc4C3=O)CC1C2` (stereo partly drawn) [Compound 106, 1-(1-oxo-5-(((1S,2S)-2-(3-phenylpyrrolidin-1-yl)cyclohexyl)oxy)isoindolin-2-yl)-3-azabicyclo[3.1.1]heptane-2,4-dione]: over 10 µM; for `O=C1NC(=O)C2(N3Cc4cc(O[C@H]5CCC[C@@H]5N5CC(c6ccccc6)C5)ccc4C3=O)CC1C2` [Compound 105, 1-(1-oxo-5-(((1S,2S)-2-(3-phenylazetidin-1-yl)cyclopentyl)oxy)isoindolin-2-yl)-3-azabicyclo[3.1.1]heptane-2,4-dione]: over 10 µM.
As to `N#Cc1ccc(C2CN([C@H]3CCCC[C@@H]3Oc3ccc4c(c3)CN(C35CC(C3)C(=O)NC5=O)C4=O)C2)cc1` (racemic) [Compound 93, Rac-4-(1-((trans)-2-((2-(2,4-dioxo-3-azabicyclo[3.1.1]heptan-1-yl)-1-oxoisoindolin-5-yl)oxy)cyclohexyl)azetidin-3-yl)benzonitrile], the concentration for a half-maximal effect (EC50) was over 10 µM.
Same read-out and setting: with `N#Cc1cccc(C2CN([C@H]3CCCC[C@H]3Oc3ccc4c(c3)CN(C35CC(C3)C(=O)NC5=O)C4=O)C2)c1` (racemic) [Compound 77, Rac-3-(1-((cis)-2-((2-(2,4-dioxo-3-azabicyclo[3.1.1]heptan-1-yl)-1-oxoisoindolin-5-yl)oxy)cyclohexyl)azetidin-3-yl)benzonitrile] the figure was over 10 µM.
Same read-out and setting: with `N#Cc1ccccc1C1CN([C@H]2CCCC[C@H]2Oc2ccc3c(c2)CN(C24CC(C2)C(=O)NC4=O)C3=O)C1` (racemic) [Compound 94, Rac-2-(1-((cis)-2-((2-(2,4-dioxo-3-azabicyclo[3.1.1]heptan-1-yl)-1-oxoisoindolin-5-yl)oxy)cyclohexyl)azetidin-3-yl)benzonitrile] the figure was over 10 µM.
Still for that read-out and setting: the same measure for `N#Cc1cccc(C2CN([C@H]3CCCC[C@@H]3Oc3ccc4c(c3)CN(C35CC(C3)C(=O)NC5=O)C4=O)C2)c1` (racemic) [Compound 78, Rac-3-(1-((trans)-2-((2-(2,4-dioxo-3-azabicyclo[3.1.1]heptan-1-yl)-1-oxoisoindolin-5-yl)oxy)cyclohexyl)azetidin-3-yl)benzonitrile]: over 10 µM.
As for `N#Cc1ccc(C2CN([C@H]3CCCC[C@@H]3Oc3ccc4c(c3)CN(C35CC(C3)C(=O)NC5=O)C4=O)C2)c(F)c1` (racemic) [Compound 91, Rac-4-(1-((trans)-2-((2-(2,4-dioxo-3-azabicyclo[3.1.1]heptan-1-yl)-1-oxoisoindolin-5-yl)oxy)cyclohexyl)azetidin-3-yl)-3-fluorobenzonitrile], the EC50 is over 10 µM.

For a further assay, the system named is IKZF2 (Helios). Put plainly: IKZF2 reporter degradation assay (HEK 293T IKZF2-mNeonGreen reporter cell line). Format: cell-based, human. The conditions noted are these: 1 μM compound, 24 hour incubation, HEK 293T IKZF2-mNeonGreen reporter. The source says: Polycistronic plasmids were constructed for the mammalian expression of fluorescent reporter fusions of human transcription factors IKZF1 (Ikaros), IKZF2 (Helios), and IKZF3 (Aiolos). The respective protein sequences had their C-terminal end joined to a GGGGS linker repeated three times followed by mNeonGreen, P2A sequence, and mScarlet. The DNA sequences of the open reading frames are as follows:
IKZF1, IKZF2, and IKZF3 constructs were cloned into the UCOE Hygromycin expression vectors (Millipore Sigma). Reporter constructs were transfected using cationic lipid reagents into adherent HEK 293T cells and stable integrants were selected by treatment with 200 μg/mL hygromycin B. Clonal populations were obtained from the population of stable integrants either by limiting dilution or fluorescence activated cell sorting.
The clonal stable cell lines were maintained under constant 200 μg/mL hygromycin B selection while being passaged for use in the degradation assays. […] The fluorescence intensity of the IKZF1/2/3-mNeonGreen (FITC channel) and mScarlet (PE channel) reporters were routinely analyzed by flow cytometry to confirm consistent expression levels between experiments.
The IKZF1/IKZF2/IKZF3 degradation assays were carried out by harvesting the HEK 293T reporter cell lines and resuspending the cells in media formulated for reduced background fluorescence (FluoroBrite; Thermo Fisher). The respective cell lines were seeded at a density of 4000 cells/well into black-walled 384-well optical grade assay tissue culture plates. The cells were incubated overnight at 37° C. to allow for attachment to the assay plate. Dilutions of the compounds were prepared in DMSO from 10 mM compound stocks. The assay plates were treated with appropriate concentrations of the compounds by dispensing the DMSO dilutions in quadruplicate wells with an upper limit of 0.5% final DMSO.
After 24 hour incubation with the compounds, the assay plates were imaged on an ImageXpress Pico microscopy system (cells maintained at 37° C. during imaging) to obtain the fluorescent readouts. The assay plates were imaged in the FITC and Tetramethylrhodamine (TRITC) channels to obtain the mNeonGreen fluorescence intensity (reporter degradation data) and mScarlet fluorescence intensity (for cell segmentation). 293T-IKZF1 and 293T-IKZF3 reporter cell lines were imaged with exposures of 500 milliseconds (ms) for both FITC and TRITC channels, while the 293T-IKZF2 reporter cell line was imaged with exposures of 1000 ms for FITC and 1250 ms for TRITC. The resulting data was analyzed with Cell Reporter Xpress software using the 2-channel cell scoring analysis with a “percent positive” readout. The TRITC channel was selected for the “nuclei” segmentation with a threshold of 20 while the FITC channel was selected for the “Marker 1” segmentation and a threshold of 100 for the IKZF1 and IKZF3 reporter lines. […] The minimum segmentation width was set to 6 micrometers and the maximum segmentation width was set to 15 micrometers for all cell lines. The DCs calculations were determined by regression to best fit four-parameter logistic curves using GraphPad Prism.
Regarding `O=C1CCC(N2Cc3cc(O[C@H]4CCC[C@@H]4N4CC(c5cccc(F)c5)C4)ccc3C2=O)C(=O)N1` (stereo partly drawn) [Compound 88, 3-(5-(((1S,2S)-2-(3-(3-fluorophenyl)azetidin-1-yl)cyclopentyl)oxy)-1-oxoisoindolin-2-yl)piperidine-2,6-dione], the “IKZF2 % Degradation @ 1 μM” value is on record as 71.4%.
Same read-out and setting: with `O=C1CCC(N2Cc3cc(O[C@H]4CCCC[C@@H]4N4CC(c5ccc(F)cc5Cl)C4)ccc3C2=O)C(=O)N1` (stereo partly drawn) [Compound 103, 3-(5-(((1S,2S)-2-(3-(2-chloro-4-fluorophenyl)azetidin-1-yl)cyclohexyl)oxy)-1-oxoisoindolin-2-yl)piperidine-2,6-dione] the figure was 73.4%.
The same measure, in the same setting: with `O=C1CCC(N2Cc3cc(O[C@H]4CCC[C@@H]4N4CC(c5ccc(F)cc5Cl)C4)ccc3C2=O)C(=O)N1` (stereo partly drawn) [Compound 104, 3-(5-(((1S,2S)-2-(3-(2-chloro-4-fluorophenyl)azetidin-1-yl)cyclopentyl)oxy)-1-oxoisoindolin-2-yl)piperidine-2,6-dione] the figure was 71.2%.

Values taken from patent US20240246935A1 (Plexium, Inc., priority 2021, published 2024).
